Laboratory results published in US6872805B2 (Bristol-Myers Squibb Company, priority 2000, dated 2005).

Molecular target: HCV NS3/4A protease complex (Hepatitis C virus genotype 1a, UniProt P27958, C1454S/C1711G)
Experiment: Recombinant HCV NS3/4A protease complex FRET peptide assay (strain not stated)
Format: biochemical
Conditions: IC50, NS3/4A protease enzyme assay, strain not stated; activity ranges
Source text: The purpose of this in vitro assay was to measure the inhibition of HCV NS3 protease complexes, derived from the BMS, H77C or J416S strains, as described below, by compounds of the present invention.
Serum from an HCV-infected patient was obtained from Dr. T. Wright, San Francisco Hospital. An engineered full-length cDNA template of the HCV genome (BMS strain) was constructed from DNA fragments obtained by reverse transcription-PCR (RT-PCR) of serum RNA and using primers selected on the basis of homology between other genotype 1a strains. […] The infectious clones, H77C (1a genotype) and J4L6S (1b genotype) were obtained from R. Purcell (NIH) and the sequences are published in genebank (AAB67036, see Yanagi, M., Purcell, R. H., Emerson, S. U. and Bukh, J. Proc. Natl. Acad. Sci. U.S.A. 94(16),8738-8743 (1997); AF054247, see Yanagi, M., St Claire, M., Shapiro, M., Emerson, S. U., Purcell, R. H. and Bukh, J, Virology 244 (1), 161-172. (1998)).
The BMS, H77C and J4L6S strains were used for production of recombinant NS3/4A protease complexes. DNA encoding the recombinant HCV NS3/4A protease complex (amino acid 1027 to 1711) for these strains were manipulated as described by P. Gallinari et al. (see Gallinari P, Paolini C, Brennan D, Nardi C, Steinkuhler C, De Francesco R. Biochemistry. 38(17):5620-32, (1999)). Briefly, a three-lysine solubilizing tail was added at the 3′-end of the NS4A coding region. The cysteine in the P1 position of the NS4A-NS4B cleavage site (amino acid 1711) was changed to a glycine to avoid the proteolytic cleavage of the lysine tag. Furthermore, a cysteine to serine mutation was introduced by PCR at amino acid position 1454 to prevent the autolytic cleavage in the NS3 helicase domain. The variant DNA fragment was cloned in the pET21b bacterial expression vector and the NS3/4A complex was expressed in E. coli BL21 (DE3) following the protocol described by P. Gallinari et al. (see Gallinari P, Brennan D, Nardi C, Brunetti M, Tomei L, Steinkuhler C, De Francesco R., J Virol. 72(8):6758-69 (1998)) with modifications. Briefly, NS3/4A expression was induced with 0.5 mM IPTG for 22 hr at 20° C. […] The cells were resuspended in lysis buffer (10 mL/g) consisting of 25 mM HEPES, pH 7.5, 20% glycerol, 500 mM NaCl, 0.5% Triton-X100, 1 ug/ml lysozyme, 5 mM MgCl2, 1 ug/ml DNaseI 5 mM β-Mercaptoethanol (βME), Protease inhibitor—EDTA free, homogenized and incubated for 20 mins at 4° C. The homogenate was sonicated and clarified by ultra-centrifugation at 235000 g for 1 hr at 4° C. Imidazole was added to the supernatant to a final concentration of 15 mM and the pH adjusted to 8.0. The crude protein extract was loaded on a Ni-NTA column pre-equilibrated with buffer B (25 mM HEPES, pH 8.0, 20% glycerol, 500 mM NaCl, 0.5% Triton-X100, 15 mM imidazole, 5 mM βME). The sample was loaded at a flow rate of 1 mL/min. The column was washed with 15 column volumes of buffer C (same as buffer B except with 0.2% Triton-X100). The protein was eluted with 5 column volumes of 200 mM Imidazole in buffer.
NS3/4A protease complex-containing fractions were pooled and loaded on a desalting column Superdex-S200 pre-equilibrated with buffer D (25 mM HEPES, pH 7.5, 20% glycerol, 300 mM NaCl, 0.2% Triton-X100, 10 mM βME). Sample was loaded at a flow rate of 1 mL/min. NS3/4A protease complex-containing fractions were pooled and concentrated to approximately 0.5 mg/ml.

Chain of HCV NS3/4A protease complex (P27958 1027-1711, stated change not applied): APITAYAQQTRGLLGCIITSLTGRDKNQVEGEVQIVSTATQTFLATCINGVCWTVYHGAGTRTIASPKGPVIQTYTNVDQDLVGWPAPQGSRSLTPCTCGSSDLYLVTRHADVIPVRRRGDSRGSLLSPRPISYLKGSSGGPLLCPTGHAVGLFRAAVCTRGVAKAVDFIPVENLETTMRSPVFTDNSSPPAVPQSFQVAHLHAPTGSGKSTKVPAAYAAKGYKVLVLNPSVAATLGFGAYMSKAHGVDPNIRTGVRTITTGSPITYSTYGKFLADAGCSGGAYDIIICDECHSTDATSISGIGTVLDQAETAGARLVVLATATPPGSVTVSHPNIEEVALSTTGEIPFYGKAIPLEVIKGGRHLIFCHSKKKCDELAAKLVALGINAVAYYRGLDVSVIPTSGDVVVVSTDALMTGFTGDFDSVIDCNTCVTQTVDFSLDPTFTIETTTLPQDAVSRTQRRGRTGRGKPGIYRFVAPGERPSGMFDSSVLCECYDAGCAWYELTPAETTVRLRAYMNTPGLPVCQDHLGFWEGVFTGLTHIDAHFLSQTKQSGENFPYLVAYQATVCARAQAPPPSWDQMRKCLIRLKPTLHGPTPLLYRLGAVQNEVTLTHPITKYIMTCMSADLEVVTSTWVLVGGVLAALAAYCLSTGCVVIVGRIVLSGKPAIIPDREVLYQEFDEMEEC
Chain of HCV NS3/4A protease complex (P27958 1027-1711, stated change not applied): as above

Row | Compound | IC50
1 | CCC1C[C@]1(NC(=O)[C@@H]1C[C@@H](Oc2cc(-c3ccccc3)nc3cc(OC)ccc23)CN1C(=O)[C@@H](NC(=O)OC(C)(C)C)C(C)C)C(=O)NS(C)(=O)=O (stereo partly shown) [Compound 1] | < 500 nM
2 | C=CC1C[C@]1(NC(=O)[C@@H]1C[C@@H](Oc2cc(-c3ccccc3)nc3cc(OC)ccc23)CN1C(=O)[C@@H](NC(=O)OC(C)(C)C)C(C)(C)C)C(=O)N[S+]([O-])C(C)(C)C (stereo partly shown) [Compound 62] | < 5000 nM
3 | C=CC1C[C@]1(NC(=O)[C@@H]1C[C@@H](Oc2cc(-c3ccccc3)nc3cc(OC)ccc23)CN1C(=O)C(NC(=O)OC(C)(C)C)C(C)(C)C)C(=O)NS(=O)(=O)c1c(C(C)C)cc(C(C)C)cc1C(C)C (stereo partly shown) [Compound 64] | < 5000 nM
4 | C=CC1C[C@]1(NC(=O)[C@@H]1C[C@@H](Oc2cc(-c3ccccc3)nc3cc(OC)ccc23)CN1C(=O)[C@@H](NC(=O)OC(C)(C)C)C(C)(C)C)C(=O)NS(=O)(=O)c1ccc(-c2ccccc2)cc1 (stereo partly shown) [Compound 65] | < 500 nM
5 | C=CC1C[C@]1(NC(=O)[C@@H]1C[C@@H](Oc2cc(-c3ccccc3)nc3cc(OC)ccc23)CN1C(=O)[C@@H](NC(=O)OC(C)(C)C)C(C)(C)C)C(=O)NS(=O)(=O)c1ccc(OC(F)(F)F)cc1 (stereo partly shown) [Compound 66] | < 500 nM
6 | CCC1CC1(NC(=O)[C@@H]1C[C@@H](Oc2cc(-c3ccccc3)nc3cc(OC)ccc23)CN1C(=O)[C@H](CC1CCCCC1)NC(=O)OC(C)(C)C)C(=O)NS(C)(=O)=O (stereo partly shown) [Compound 74] | < 5000 nM
7 | CCC1CC1(NC(=O)[C@@H]1C[C@@H](Oc2cc(-c3ccccc3)nc3cc(OC)ccc23)CN1C(=O)[C@H](CC1CCCCC1)NC(=O)OC(C)(C)C)C(=O)NS(C)(=O)=O (stereo partly shown) [Compound 75] | < 500 nM
8 | C=CC1CC1(NC(=O)[C@@H]1C[C@@H](Oc2cc(-c3ccccc3)nc3cc(OC)ccc23)CN1C(=O)[C@H](CC1CCCCC1)NC(=O)OC(C)(C)C)C(=O)NS(C)(=O)=O (stereo partly shown) [Compound 76] | < 500 nM
9 | CCC1CC1(NC(=O)[C@@H]1C[C@@H](Oc2cc(-c3ccccc3)nc3cc(OC)ccc23)CN1C(=O)[C@H](CC1CCCCC1)NC(=O)OC(C)(C)C)C(=O)NS(=O)(=O)C1CC1 (stereo partly shown) [Compound 77] | < 50000 nM
10 | CCC1CC1(NC(=O)[C@@H]1C[C@@H](Oc2cc(-c3ccccc3)nc3cc(OC)ccc23)CN1C(=O)[C@H](CC1CCCCC1)NC(=O)OC(C)(C)C)C(=O)NS(=O)(=O)C1CC1 (stereo partly shown) [Compound 78] | < 50 nM
11 | C=CC1CC1(NC(=O)[C@@H]1C[C@@H](Oc2cc(-c3ccccc3)nc3cc(OC)ccc23)CN1C(=O)[C@H](CC1CCCCC1)NC(=O)OC(C)(C)C)C(=O)NS(=O)(=O)C1CC1 (stereo partly shown) [Compound 79] | < 500 nM
12 | CCC1CC1(NC(=O)[C@@H]1C[C@@H](Oc2cc(-c3ccccc3)nc3cc(OC)ccc23)CN1C(=O)[C@H](CC1CCCCC1)NC(=O)OC(C)(C)C)C(=O)NS(=O)(=O)C(F)(F)F (stereo partly shown) [Compound 80] | < 5000 nM
13 | C=CC1CC1(NC(=O)[C@@H]1C[C@@H](Oc2cc(-c3ccccc3)nc3cc(OC)ccc23)CN1C(=O)[C@H](CC1CCCCC1)NC(=O)OC(C)(C)C)C(=O)NS(=O)(=O)C(F)(F)F (stereo partly shown) [Compound 81] | < 5000 nM
14 | C=CC1CC1(NC(=O)[C@@H]1C[C@@H](Oc2cc(-c3ccccc3)nc3cc(OC)ccc23)CN1C(=O)[C@H](CC1CCCCC1)NC(=O)OC(C)(C)C)C(=O)NS(=O)(=O)C(F)(F)F (stereo partly shown) [Compound 82] | < 50000 nM
15 | C=CC1CC1(NC(=O)[C@@H]1C[C@@H](Oc2cc(-c3ccccc3)nc3cc(OC)ccc23)CN1C(=O)[C@H](CC(C)C)NC(=O)OC(C)(C)C)C(=O)NS(=O)(=O)C(F)(F)F (stereo partly shown) [Compound 84] | < 5000 nM
16 | C=CC1CC1(NC(=O)[C@@H]1C[C@@H](Oc2cc(-c3ccccc3)nc3cc(OC)ccc23)CN1C(=O)[C@@H](NC(=O)OC(C)(C)C)C(C)C)C(=O)NS(=O)(=O)C(F)(F)F (stereo partly shown) [Compound 85] | < 500 nM
17 | C=CC1CC1(NC(=O)[C@@H]1C[C@@H](Oc2cc(-c3ccccc3)nc3cc(OC)ccc23)CN1C(=O)[C@@H](NC(=O)OC(C)(C)C)C(C)(C)C)C(=O)NS(C)(=O)=O (stereo partly shown) [Compound 88] | < 500 nM
18 | C=CC1CC1(NC(=O)[C@@H]1C[C@@H](Oc2cc(-c3ccccc3)nc3cc(OC)ccc23)CN1C(=O)[C@H](CC(C)C)NC(=O)OC(C)(C)C)C(=O)NS(C)(=O)=O (stereo partly shown) [Compound 90] | < 500 nM
19 | C=CC1CC1(NC(=O)[C@@H]1C[C@@H](Oc2cc(-c3ccccc3)nc3cc(OC)ccc23)CN1C(=O)[C@@H](NC(=O)OC(C)(C)C)C(C)C)C(=O)NS(=O)(=O)C1CC1 (stereo partly shown) [Compound 92] | < 50 nM
20 | C=CC1CC1(NC(=O)[C@@H]1C[C@@H](Oc2cc(-c3ccccc3)nc3cc(OC)ccc23)CN1C(=O)[C@H](CC(C)C)NC(=O)OC(C)(C)C)C(=O)NS(=O)(=O)C1CC1 (stereo partly shown) [Compound 93] | < 50 nM
21 | C=CC1CC1(NC(=O)OC(C)(C)C)C(=O)N1C[C@H](Oc2cc(-c3ccccc3)nc3cc(OC)ccc23)CC1C(=O)N[C@]1(C(=O)NS(=O)(=O)C2CC2)C[C@H]1C=C (stereo partly drawn) [Compound 97, {1S-[2S-(1R-cyclopropanesulfonylamino-carbonyl-2S-vinylcyclopropylcarbamoyl)-4R-(7-methoxy-2-phenyl-quinolin-4-yloxy)-pyrrolidine-1-carbonyl]-2-vinyl-cyclopropyl}-carbamic acid tert-butyl ester] | < 500 nM
22 | COc1ccc2c(O[C@@H]3C[C@@H](C(=O)NC4(C(=O)NS(=O)(=O)C5CC5)CC45CCC5)N(C(=O)[C@@H](NC(=O)OC(C)(C)C)C(C)C)C3)cc(-c3ccccc3)nc2c1 (stereo partly shown) [Compound 138] | < 5000 nM
23 | COc1ccc2c(OC3C[C@@H](C(=O)NC4(C(=O)NS(=O)(=O)C5CC5)CC45CCCC5)N(C(=O)[C@@H](NC(=O)OC(C)(C)C)C(C)(C)C)C3)cc(-c3ccccc3)nc2c1 (stereo partly shown) [Compound 139, {1-[2-(1-Cyclopropanesulfonylaminocarbonyl-spiro[2.4]hept-1-ylcarbamoyl)-4-(7-methoxy-2-phenyl-quinolin-4-yloxy)-pyrrolidine-1-carbonyl]-2,2-dimethyl-propyl}carbamic acid tert-butyl ester] | < 5000 nM

Same assay, conditions: IC50, separated isomers of Compound 97; strain not stated

Row | Compound | IC50
24 | C=CC1CC1(NC(=O)OC(C)(C)C)C(=O)N1C[C@H](Oc2cc(-c3ccccc3)nc3cc(OC)ccc23)CC1C(=O)N[C@]1(C(=O)NS(=O)(=O)C2CC2)C[C@H]1C=C (stereo partly drawn) [higher RF isomer, {1S-[2S-(1R-cyclopropanesulfonylamino-carbonyl-2S-vinylcyclopropylcarbamoyl)-4R-(7-methoxy-2-phenyl-quinolin-4-yloxy)-pyrrolidine-1-carbonyl]-2-vinyl-cyclopropyl}-carbamic acid tert-butyl ester] | 250 nM
25 | C=CC1CC1(NC(=O)OC(C)(C)C)C(=O)N1C[C@H](Oc2cc(-c3ccccc3)nc3cc(OC)ccc23)CC1C(=O)N[C@]1(C(=O)NS(=O)(=O)C2CC2)C[C@H]1C=C (stereo partly drawn) [lower RF isomer, {1S-[2S-(1R-cyclopropanesulfonylamino-carbonyl-2S-vinylcyclopropylcarbamoyl)-4R-(7-methoxy-2-phenyl-quinolin-4-yloxy)-pyrrolidine-1-carbonyl]-2-vinyl-cyclopropyl}-carbamic acid tert-butyl ester] | 24 nM
